Test results published in ChEMBL document CHEMBL1143262, “1-Oxo-3-substitute-isothiochroman-4-carboxylic acid compounds: synthesis and biological activities of FAS inhibition” (Bioorg Med Chem Lett, 2009).

How the values were obtained:
fatty acid synthase [1] = assay: Therapeutic index, ratio of TC50 for HLF to IC50 for Sprague-Dawley rat liver fatty acid synthase; settings: human (HLF cells), HLF cells versus rat liver fatty acid synthase
Fatty acid synthase [2] = target: Fatty acid synthase (Rattus norvegicus, UniProt P12785); assay: Inhibition of Sprague-Dawley rat liver fatty acid synthase
Sequence of Fatty acid synthase (P12785 whole entry): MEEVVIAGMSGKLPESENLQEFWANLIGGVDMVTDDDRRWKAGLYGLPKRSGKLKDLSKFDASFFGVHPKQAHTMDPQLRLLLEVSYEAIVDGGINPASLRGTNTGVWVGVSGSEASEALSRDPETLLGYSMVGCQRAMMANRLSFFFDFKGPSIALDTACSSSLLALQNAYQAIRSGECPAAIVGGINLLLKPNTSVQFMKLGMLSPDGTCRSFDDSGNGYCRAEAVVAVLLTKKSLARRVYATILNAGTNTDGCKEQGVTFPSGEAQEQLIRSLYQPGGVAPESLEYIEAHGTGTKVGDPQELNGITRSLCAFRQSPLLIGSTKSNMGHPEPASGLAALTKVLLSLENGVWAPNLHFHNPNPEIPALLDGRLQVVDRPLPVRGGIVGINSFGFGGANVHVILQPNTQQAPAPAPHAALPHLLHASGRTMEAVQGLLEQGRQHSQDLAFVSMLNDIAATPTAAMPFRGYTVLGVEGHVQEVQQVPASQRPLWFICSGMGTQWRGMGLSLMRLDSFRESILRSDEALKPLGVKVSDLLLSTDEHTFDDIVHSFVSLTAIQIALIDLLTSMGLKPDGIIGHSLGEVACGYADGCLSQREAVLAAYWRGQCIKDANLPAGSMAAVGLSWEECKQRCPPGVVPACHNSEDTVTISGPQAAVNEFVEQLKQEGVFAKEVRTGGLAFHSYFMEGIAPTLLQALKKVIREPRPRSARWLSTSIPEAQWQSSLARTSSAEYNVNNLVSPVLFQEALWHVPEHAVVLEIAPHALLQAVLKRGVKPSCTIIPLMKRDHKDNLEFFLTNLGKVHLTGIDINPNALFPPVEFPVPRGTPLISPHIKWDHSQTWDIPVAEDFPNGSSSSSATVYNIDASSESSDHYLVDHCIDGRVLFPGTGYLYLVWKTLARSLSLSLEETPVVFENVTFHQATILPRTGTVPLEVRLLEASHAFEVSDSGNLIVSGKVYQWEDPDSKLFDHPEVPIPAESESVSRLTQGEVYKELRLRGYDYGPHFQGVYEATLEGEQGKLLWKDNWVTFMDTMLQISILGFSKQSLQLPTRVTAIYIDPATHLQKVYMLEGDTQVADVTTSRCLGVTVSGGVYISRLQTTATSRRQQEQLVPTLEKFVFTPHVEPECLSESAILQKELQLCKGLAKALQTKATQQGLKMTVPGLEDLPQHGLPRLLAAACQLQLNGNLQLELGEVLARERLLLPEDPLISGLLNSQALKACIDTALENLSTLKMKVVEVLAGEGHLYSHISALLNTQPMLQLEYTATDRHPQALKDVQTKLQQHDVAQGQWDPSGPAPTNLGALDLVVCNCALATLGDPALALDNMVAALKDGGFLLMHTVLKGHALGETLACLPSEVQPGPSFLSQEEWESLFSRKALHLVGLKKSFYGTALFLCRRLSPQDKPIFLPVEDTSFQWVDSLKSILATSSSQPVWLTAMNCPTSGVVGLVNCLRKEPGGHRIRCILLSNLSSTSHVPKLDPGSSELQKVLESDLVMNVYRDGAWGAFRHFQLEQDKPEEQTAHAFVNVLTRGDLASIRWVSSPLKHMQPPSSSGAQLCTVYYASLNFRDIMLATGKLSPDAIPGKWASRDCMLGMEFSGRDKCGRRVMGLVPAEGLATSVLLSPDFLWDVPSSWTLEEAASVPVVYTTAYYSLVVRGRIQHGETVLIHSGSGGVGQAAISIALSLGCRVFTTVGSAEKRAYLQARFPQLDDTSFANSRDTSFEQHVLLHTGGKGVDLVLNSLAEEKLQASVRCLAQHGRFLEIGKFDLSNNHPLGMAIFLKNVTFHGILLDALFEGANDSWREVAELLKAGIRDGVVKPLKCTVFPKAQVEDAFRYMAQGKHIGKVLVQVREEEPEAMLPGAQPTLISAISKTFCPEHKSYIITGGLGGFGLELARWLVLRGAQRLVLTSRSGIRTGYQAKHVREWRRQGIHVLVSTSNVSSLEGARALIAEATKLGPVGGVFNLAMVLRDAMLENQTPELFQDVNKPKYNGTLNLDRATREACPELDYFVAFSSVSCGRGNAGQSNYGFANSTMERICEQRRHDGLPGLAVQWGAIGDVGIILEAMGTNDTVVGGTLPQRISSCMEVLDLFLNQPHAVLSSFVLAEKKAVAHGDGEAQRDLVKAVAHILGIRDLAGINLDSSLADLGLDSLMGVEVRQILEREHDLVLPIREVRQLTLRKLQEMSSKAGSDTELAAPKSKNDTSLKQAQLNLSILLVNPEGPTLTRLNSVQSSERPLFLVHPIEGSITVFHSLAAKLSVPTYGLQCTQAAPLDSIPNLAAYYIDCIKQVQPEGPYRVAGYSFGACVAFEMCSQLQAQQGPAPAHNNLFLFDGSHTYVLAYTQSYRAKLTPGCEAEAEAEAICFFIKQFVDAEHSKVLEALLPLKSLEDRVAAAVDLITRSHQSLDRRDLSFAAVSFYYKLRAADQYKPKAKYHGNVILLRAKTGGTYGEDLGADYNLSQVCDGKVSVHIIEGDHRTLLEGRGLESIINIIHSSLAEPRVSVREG

[3] = Cytotoxicity against HLF by MTT assay; settings: human, HLF cells; read-out: TC50 (the source's name)
[4] = target: Fatty acid synthase (Rattus norvegicus) (UniProt P12785); assay: Inhibition of Sprague-Dawley rat liver fatty acid synthase at 60 umol
Sequence of Fatty acid synthase (Rattus norvegicus) (P12785 whole entry): as above

IC50 (Fatty acid synthase [2]) [µM] | inhibition [4] [%] | SMILES | selectivity ratio (fatty acid synthase [1]) | CC50 [3] [µM]
3.62 | 95.7 | CCCCCCCCCCC[C@H]1SC(=O)c2ccccc2[C@@H]1C(=O)O (relative stereo) | 2.67 | 9.67
12.3 | 50.9 | CCCCCCCC[C@H]1SC(=O)c2ccccc2[C@@H]1C(=O)O (relative stereo) | 6.83 | 84.2
26.9 | 43.1 | CCCCCCC[C@H]1SC(=O)c2ccccc2[C@@H]1C(=O)O (relative stereo) | – | > 200
4.11 | 90.2 | CCCCCCCCCC[C@H]1SC(=O)c2ccccc2[C@@H]1C(=O)O (relative stereo) | 2.92 | 12
8.29 | 77.5 | CCCCCCCCCC1SC(=O)c2ccccc2[C@@H]1C(=O)O (stereo not given in full) | 10.7 | 88.6
36.7 | 40.4 | CCCCCC[C@H]1SC(=O)c2ccccc2[C@@H]1C(=O)O (relative stereo) | – | > 200
15.5 | – | C=C1C(=O)O[C@H](CCCCCCCC)[C@H]1C(=O)O (relative stereo) | 5.61 | 87.1
